Assay results from ChEMBL document CHEMBL6092192 (J Med Chem, 2024).
The source made the active and inactive calls. The rule behind the calls is not given here.

Legend:
SW-620 [1] = assay: Reversal of paclitaxel resistance in human SW620 cells assessed as reversal fold by measuring ratio of paclitaxel IC50 to paclitaxel IC50 in presence of test compound at 2 uM incubated for 72 hrs by MTT assay; format: functional
SW-620 [2] = assay: Cytotoxicity against human SW620 cells assessed as survival rate at 2 uM measured after 72 hrs by MTT assay relative to control; format: functional; conditions: read-out: Survival
SW620/AD300 = assay: Cytotoxicity against multidrug resistant human SW620/AD300 cells assessed as survival rate at 2 uM measured after 72 hrs by MTT assay relative to control; format: functional; conditions: read-out: Survival
KB-C2 = assay: Cytotoxicity against human KB-C2 cells assessed as survival rate at 2 uM measured after 72 hrs by MTT assay relative to control; format: functional; conditions: read-out: Survival
KB 3-1 [3] = assay: Reversal of paclitaxel resistance in human KB 3-1 cells assessed as reversal fold by measuring ratio of paclitaxel IC50 to paclitaxel IC50 in presence of test compound at 2 uM incubated for 72 hrs by MTT assay; format: functional
KB 3-1 [4] = assay: Cytotoxicity against human KB 3-1 cells assessed as survival rate at 2 uM measured after 72 hrs by MTT assay relative to control; format: functional; conditions: read-out: Survival
KB 3-1 [5] = assay: Cytotoxicity against human KB 3-1 cells assessed as survival rate at 5 uM measured after 72 hrs by MTT assay relative to control; format: functional; conditions: read-out: Survival
HEK293 = assay: Cytotoxicity against HEK293 cells transfected with pcDNA3.1 assessed as survival rate at 2 uM measured after 72 hrs by MTT assay relative to control; format: functional; conditions: Homo sapiens, read-out: Survival
[6] = Reversal of paclitaxel resistance in HEK293 cells harbouring ABCB1 assessed as reversal fold by measuring ratio of paclitaxel IC50 to paclitaxel IC50 in presence of test compound at 2 uM incubated for 72 hrs by MTT assay; format: functional, Homo sapiens
[7] = Reversal of paclitaxel resistance in HEK293 cells harbouring ABCB1 assessed as reversal fold by measuring ratio of paclitaxel IC50 to paclitaxel IC50 in presence of test compound at 4 uM incubated for 72 hrs by MTT assay; format: functional, Homo sapiens
[8] = AUC (0 to t) in 12 hrs fasted Sprague-Dawley rat at 1 mg/kg, iv measured upto 720 mins by HPLC-MS/MS analysis; format: ADME, organism-based; conditions: in vivo
[9] = MRT (0 to infinity) in 12 hrs fasted Sprague-Dawley rat at 1 mg/kg, iv measured upto 720 mins by HPLC-MS/MS analysis; format: ADME, organism-based; conditions: in vivo
[10] = AUC (0 to t) in 12 hrs fasted Sprague-Dawley rat at 10 mg/kg, po measured upto 720 mins by HPLC-MS/MS analysis; format: ADME, organism-based; conditions: in vivo
[11] = MRT (0 to infinity) in 12 hrs fasted Sprague-Dawley rat at 10 mg/kg, po measured upto 720 mins by HPLC-MS/MS analysis; format: ADME, organism-based; conditions: in vivo
[12] = Toxicity in Sprague-Dawley rat assessed as fatality at 250 to 1000 mg/kg, po measured for 14 days administered as single dose; format: organism-based; conditions: in vivo, 336 h, dose 250-1000 mg/kg, time 14 day
[13] = Toxicity in BALB/c nude mouse assessed as effect on liver liver injury at 100 mg/kg/day, IG measured after 21 days in presence of paclitaxel by H and E staining based analysis; format: organism-based; conditions: in vivo, po, 504 h, time 21 day
CD8-positive T cell = assay: Activation of immune response in human CD8-positive T cell assessed as increase in TNF-alpha level at 4 uM by ELISA method; format: functional, cell-based
[14] = target: ATP-dependent translocase ABCB1 (Homo sapiens, UniProt P08183); assay: Activation of ABCB1 ATPase activity (unknown origin) infected in insect cells at 18.5 uM incubated for 20 mins in presence of Mg-ATP by spectrophotometric analysis; format: cell-based; conditions: insect cell
[15] = Toxicity in BALB/c nude mouse xenografted with […] CT26/TAXOL cells assessed as mortality at 100 mg/kg/day, IG measured upto 14 days in presence of paclitaxel/anti-PD-1; format: organism-based; conditions: in vivo, po, 336 h, time < 14 day
[16] = Toxicity in BALB/c nude mouse xenografted with […] CT26/TAXOL cells assessed as change in body weight at 100 mg/kg/day, IG measured upto 14 days in presence of paclitaxel; format: organism-based; conditions: in vivo, po, 336 h, time < 14 day
[17] = Toxicity in BALB/c nude mouse xenografted with […] CT26/TAXOL cells assessed as effect on heart at 100 mg/kg/day, IG measured after 14 days by H and E staining based analysis; format: organism-based; conditions: in vivo, po, 336 h, time 14 day
[18] = Toxicity in BALB/c nude mouse xenografted with […] CT26/TAXOL cells assessed as effect on spleen at 100 mg/kg/day, IG measured after 14 days by H and E staining based analysis; format: organism-based; conditions: in vivo, po, 336 h, time 14 day
[19] = Toxicity in BALB/c nude mouse xenografted with […] CT26/TAXOL cells assessed as effect on kidney at 100 mg/kg/day, IG measured after 14 days by H and E staining based analysis; format: organism-based; conditions: in vivo, po, 336 h, time 14 day
[20] = Toxicity in BALB/c nude mouse xenografted with […] CT26/TAXOL cells assessed as effect on brain at 100 mg/kg/day, IG measured after 14 days by H and E staining based analysis; format: organism-based; conditions: in vivo, po, 336 h, time 14 day
[21] = Toxicity in BALB/c nude mouse xenografted with […] CT26/TAXOL cells assessed as effect on heart at 100 mg/kg/day, IG in presence of paclitaxel measured after 14 days by H and E staining based analysis; format: organism-based; conditions: in vivo, po, 336 h, time 14 day
[22] = Toxicity in BALB/c nude mouse xenografted with […] CT26/TAXOL cells assessed as effect on liver at 100 mg/kg/day, IG in presence of paclitaxel measured after 14 days by H and E staining based analysis; format: organism-based; conditions: in vivo, po, 336 h, time 14 day
[23] = Toxicity in BALB/c nude mouse xenografted with […] CT26/TAXOL cells assessed as effect on spleen at 100 mg/kg/day, IG in presence of paclitaxel measured after 14 days by H and E staining based analysis; format: organism-based; conditions: in vivo, po, 336 h, time 14 day
[24] = Toxicity in BALB/c nude mouse xenografted with […] CT26/TAXOL cells assessed as effect on lung at 100 mg/kg/day, IG in presence of paclitaxel measured after 14 days by H and E staining based analysis; format: organism-based; conditions: in vivo, po, 336 h, time 14 day
[25] = Toxicity in BALB/c nude mouse xenografted with […] CT26/TAXOL cells assessed as effect on brain at 100 mg/kg/day, IG in presence of paclitaxel measured after 14 days by H and E staining based analysis; format: organism-based; conditions: in vivo, po, 336 h, time 14 day
[26] = Toxicity in BALB/c nude mouse xenografted with […] CT26/TAXOL cells assessed as effect on liver at 100 mg/kg/day, IG in presence of paclitaxel/anti-PD-1 measured after 14 days by H and E staining based analysis; format: organism-based; conditions: in vivo, po, 336 h, time 14 day
[27] = Toxicity in BALB/c nude mouse xenografted with […] CT26/TAXOL cells assessed as effect on spleen at 100 mg/kg/day, IG in presence of paclitaxel/anti-PD-1 measured after 14 days by H and E staining based analysis; format: organism-based; conditions: in vivo, po, 336 h, time 14 day
Cytochrome P450 3A4 = Cytochrome P450 3A4 (Homo sapiens, UniProt P08684); assay: Activation of recombinant CYP3A4 in human liver microsomes at 30 uM measured upto 40 mins in presence of NADPH generating system by fluorescence based analysis; format: ADME, Microsome
Cytochrome P450 3A4, sequence (P08684 whole entry): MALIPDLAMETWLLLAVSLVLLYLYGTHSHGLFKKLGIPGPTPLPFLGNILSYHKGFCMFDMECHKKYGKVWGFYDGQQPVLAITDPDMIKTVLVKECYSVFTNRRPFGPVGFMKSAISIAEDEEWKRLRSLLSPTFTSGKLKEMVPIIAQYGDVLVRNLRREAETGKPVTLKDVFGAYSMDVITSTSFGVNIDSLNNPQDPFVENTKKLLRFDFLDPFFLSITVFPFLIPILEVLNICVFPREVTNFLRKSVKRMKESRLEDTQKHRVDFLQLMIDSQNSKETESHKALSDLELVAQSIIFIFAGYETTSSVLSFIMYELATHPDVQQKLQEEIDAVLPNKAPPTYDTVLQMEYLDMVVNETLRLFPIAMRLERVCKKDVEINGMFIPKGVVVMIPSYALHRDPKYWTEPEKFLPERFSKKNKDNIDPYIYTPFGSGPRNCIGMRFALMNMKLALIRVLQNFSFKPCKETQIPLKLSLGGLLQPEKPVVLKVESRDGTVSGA

ATP-dependent translocase ABCB1, sequence (P08183 whole entry): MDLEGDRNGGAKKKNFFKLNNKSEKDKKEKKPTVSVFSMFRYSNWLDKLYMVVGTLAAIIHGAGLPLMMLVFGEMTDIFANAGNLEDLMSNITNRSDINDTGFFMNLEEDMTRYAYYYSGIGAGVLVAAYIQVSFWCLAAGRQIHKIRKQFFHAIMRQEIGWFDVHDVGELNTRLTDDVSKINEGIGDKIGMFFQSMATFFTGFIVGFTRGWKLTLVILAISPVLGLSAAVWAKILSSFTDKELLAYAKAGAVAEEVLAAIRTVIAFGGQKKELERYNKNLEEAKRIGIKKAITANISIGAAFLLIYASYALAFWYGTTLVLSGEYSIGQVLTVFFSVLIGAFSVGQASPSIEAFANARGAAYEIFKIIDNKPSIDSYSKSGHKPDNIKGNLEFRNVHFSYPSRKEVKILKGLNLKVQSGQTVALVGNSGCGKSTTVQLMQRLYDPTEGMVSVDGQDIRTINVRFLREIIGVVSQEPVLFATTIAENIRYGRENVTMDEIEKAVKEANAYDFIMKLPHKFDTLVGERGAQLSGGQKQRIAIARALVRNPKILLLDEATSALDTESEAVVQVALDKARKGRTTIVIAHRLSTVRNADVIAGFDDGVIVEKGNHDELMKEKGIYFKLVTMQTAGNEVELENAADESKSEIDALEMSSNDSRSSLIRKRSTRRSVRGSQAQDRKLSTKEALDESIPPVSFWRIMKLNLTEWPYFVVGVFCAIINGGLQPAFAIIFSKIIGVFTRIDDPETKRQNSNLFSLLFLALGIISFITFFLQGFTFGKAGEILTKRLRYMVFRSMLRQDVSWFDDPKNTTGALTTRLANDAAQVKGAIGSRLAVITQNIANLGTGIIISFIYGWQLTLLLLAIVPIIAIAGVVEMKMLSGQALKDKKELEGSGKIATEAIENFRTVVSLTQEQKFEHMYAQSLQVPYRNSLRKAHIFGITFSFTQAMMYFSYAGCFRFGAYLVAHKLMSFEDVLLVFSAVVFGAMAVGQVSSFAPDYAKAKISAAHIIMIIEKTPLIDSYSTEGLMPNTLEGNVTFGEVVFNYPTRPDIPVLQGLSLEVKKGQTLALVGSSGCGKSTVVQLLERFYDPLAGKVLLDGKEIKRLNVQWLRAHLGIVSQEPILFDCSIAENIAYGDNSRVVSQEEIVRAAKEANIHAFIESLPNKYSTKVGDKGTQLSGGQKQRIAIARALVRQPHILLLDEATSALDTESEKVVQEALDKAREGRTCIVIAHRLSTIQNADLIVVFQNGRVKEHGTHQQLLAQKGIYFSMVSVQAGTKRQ

O=c1c2c([nH]c3nc(SCc4nc5ccccc5s4)nn13)CCC2
Ratio IC50 (SW-620 [1]): 1.01
viability at 2 µM (SW-620 [2]): 95.9%
viability at 2 µM (SW620/AD300): 98.5%
viability at 2 µM (KB-C2): 96.2%
Ratio IC50 (KB 3-1 [3]): 1.05
viability at 2 µM (KB 3-1 [4]): 99.6%
viability at 5 µM (KB 3-1 [5]): 95.9%
viability at 2 µM (HEK293): 97.8%
Ratio IC50 [6]: 7.82
Ratio IC50 [7]: 28.25
AUC(0-t) at 12 h [8]: 880 ng·h/mL
MRT inf [9]: 5.49 h
AUC(0-t) at 12 h [10]: 5740 ng·h/mL
MRT inf [11]: 7.24 h
Activity [12]: Non-toxic
Activity [13]: Non-toxic
Activity (CD8-positive T cell): Active
Activity [14]: Active
Activity [15]: Non-toxic
Activity [16]: Non-toxic
Activity [17]: Non-toxic
Activity [18]: Non-toxic
Activity [19]: Non-toxic
Activity [20]: Non-toxic
Activity [21]: Non-toxic
Activity [22]: Non-toxic
Activity [23]: Non-toxic
Activity [24]: Non-toxic
Activity [25]: Non-toxic
Activity [26]: Non-toxic
Activity [27]: Non-toxic
Activity (Cytochrome P450 3A4): Active
